We go through 1 molecule from patent US20240245652A1, “METHODS AND COMPOSITIONS FOR MANAGING PAIN COMPRISING DEXMEDETOMIDINE TRANSDERMAL COMPOSITIONS” (Teikoku Pharma USA, Inc., priority 2013, published 2024).

Like-named read-outs stand apart in the source and are kept apart here.

As for `Cc1cccc([C@H](C)c2cnc[nH]2)c1C` [dexmedetomidine, Dexmedetomidine], the solubility of dexmedetomidine entry was “less than 2%” (in Duro-Tak 87-2979); 10-15% (in Duro-Tak 387/87-2353); “less than 1%” (in hydroxyl functionalized acrylate polymer); 5 to 10% (in lauryl lactate); roughly 60% (in levulinic acid); roughly 40% (in oleic acid). The solubility of dexmedetomidine (in propylene glycolmonolaurate) is recorded as 5 to 10%.
